Measurements from the NIST ThermoML archive (doi:10.1016/j.fluid.2010.05.019).
± gives the expanded uncertainty stated by the source.

Columns and labels:
[1] = wn = mass fraction of the nth substance listed; details: 298.15 K, 101 kPa, Liquid, Alternating current cell with electrodes
[2] = 298.15 K, Liquid; for electrical conductivity: 101 kPa, Alternating current cell with electrodes; for viscosity / mass density: 101.33 kPa; for viscosity: Cone and plate viscometry; for mass density: Pycnometric method

Cc1ccc[n+](C)c1C.O=C[O-] [1,2,3-trimethylpyridinium formate] + O
[1]
Details | electrical conductivity [S/m]
w2 = 0 | 0.68 ± 0.054
w2 = 0.0476 | 0.837 ± 0.067
w2 = 0.0909 | 0.963 ± 0.077
w2 = 0.1666 | 1.33 ± 0.11
w2 = 0.1999 | 1.48 ± 0.12
w2 = 0.2592 | 1.88 ± 0.15
w2 = 0.3103 | 2.31 ± 0.18
w2 = 0.3547 | 2.69 ± 0.21
w2 = 0.4117 | 3.23 ± 0.26
w2 = 0.4594 | 3.62 ± 0.29
w2 = 0.4999 | 3.95 ± 0.32
w2 = 0.5555 | 4.37 ± 0.35
w2 = 0.5999 | 4.65 ± 0.37
w2 = 0.6551 | 4.74 ± 0.38
w2 = 0.7014 | 4.75 ± 0.38
w2 = 0.7499 | 4.75 ± 0.38
w2 = 0.7999 | 4.51 ± 0.36
w2 = 0.8571 | 3.85 ± 0.31
w2 = 0.9 | 3.13 ± 0.25
w2 = 0.95 | 1.93 ± 0.15

C1CC[NH2+]C1.CCCCCCCCC(=O)[O-] [pyrrolidinium nonanoate] + O
[1]
Details | electrical conductivity [S/m]
w2 = 0 | 0.064 ± 0.005
w2 = 0.0476 | 0.073 ± 0.006
w2 = 0.0909 | 0.122 ± 0.01
w2 = 0.1667 | 0.295 ± 0.024
w2 = 0.2 | 0.392 ± 0.031
w2 = 0.2593 | 0.579 ± 0.046
w2 = 0.3103 | 0.754 ± 0.06
w2 = 0.3548 | 0.915 ± 0.073
w2 = 0.3939 | 1.07 ± 0.086
w2 = 0.4595 | 1.29 ± 0.1
w2 = 0.5 | 1.44 ± 0.12
w2 = 0.5556 | 1.61 ± 0.13
w2 = 0.5833 | 1.68 ± 0.14
w2 = 0.6 | 1.73 ± 0.14
w2 = 0.6154 | 1.76 ± 0.14
w2 = 0.6296 | 1.79 ± 0.14
w2 = 0.6429 | 1.81 ± 0.14
w2 = 0.6552 | 1.84 ± 0.15
w2 = 0.6667 | 1.85 ± 0.15
w2 = 0.7143 | 1.87 ± 0.15
w2 = 0.8065 | 1.63 ± 0.13
w2 = 0.902 | 1.08 ± 0.087

O [water] + C1CC[NH2+]C1.O=C[O-]
Details | electrical conductivity [S/m]
[1], w1 = 1 | 0.0001 ± 0.0001

C1CC[NH2+]C1.CCCCCC(=O)[O-] [pyrrolidinium hexanoate] + O
[1]
Details | electrical conductivity [S/m]
w2 = 0 | 0.204 ± 0.016
w2 = 0.0476 | 0.568 ± 0.045
w2 = 0.0909 | 0.95 ± 0.076
w2 = 0.1489 | 1.54 ± 0.12
w2 = 0.1667 | 1.73 ± 0.14
w2 = 0.1837 | 1.91 ± 0.15
w2 = 0.2 | 2.01 ± 0.16
w2 = 0.2308 | 2.21 ± 0.18
w2 = 0.2593 | 2.4 ± 0.19
w2 = 0.2727 | 2.48 ± 0.2
w2 = 0.2982 | 2.61 ± 0.21
w2 = 0.3103 | 2.65 ± 0.21
w2 = 0.3333 | 2.76 ± 0.22
w2 = 0.3548 | 2.86 ± 0.23
w2 = 0.3846 | 2.91 ± 0.23
w2 = 0.403 | 2.91 ± 0.23
w2 = 0.4521 | 2.92 ± 0.23
w2 = 0.5 | 2.89 ± 0.23
w2 = 0.5294 | 2.85 ± 0.23
w2 = 0.5506 | 2.81 ± 0.23
w2 = 0.601 | 2.53 ± 0.2
w2 = 0.7015 | 1.96 ± 0.16
w2 = 0.8004 | 1.21 ± 0.097
w2 = 0.9002 | 0.551 ± 0.044

O=C[O-].c1ccc2[nH+]cccc2c1 [quinolinium formate] + O
[1]
Details | electrical conductivity [S/m]
w2 = 0 | 0.415 ± 0.033
w2 = 0.0566 | 0.621 ± 0.05
w2 = 0.0909 | 0.854 ± 0.068
w2 = 0.1667 | 1.38 ± 0.11
w2 = 0.2 | 1.59 ± 0.13
w2 = 0.2593 | 2.01 ± 0.16
w2 = 0.3103 | 2.47 ± 0.2
w2 = 0.3548 | 2.84 ± 0.23
w2 = 0.3939 | 3.1 ± 0.25
w2 = 0.4444 | 3.49 ± 0.28
w2 = 0.4595 | 3.59 ± 0.29
w2 = 0.5 | 3.81 ± 0.3
w2 = 0.5652 | 4.11 ± 0.33
w2 = 0.6 | 4.23 ± 0.34
w2 = 0.6552 | 4.3 ± 0.34
w2 = 0.7059 | 4.26 ± 0.34
w2 = 0.75 | 4.12 ± 0.33
w2 = 0.8 | 3.94 ± 0.32
w2 = 0.8571 | 3.37 ± 0.27
w2 = 0.9 | 2.75 ± 0.22

C1CC[NH2+]C1.CCCCCC(=O)[O-] [pyrrolidinium hexanoate]
[2]
Details | electrical conductivity [S/m] | mass density [kg/m3] | viscosity [mPa·s]
– | 0.204 ± 0.016 | 988 ± 60 | 27.4

C1CC[NH2+]C1.O=[N+]([O-])[O-] [pyrrolidinium nitrate] + O
[1]
Details | electrical conductivity [S/m]
w2 = 0 | 5.01 ± 0.4
w2 = 0.0476 | 6.79 ± 0.54
w2 = 0.0908 | 7.74 ± 0.62
w2 = 0.1665 | 9.11 ± 0.73
w2 = 0.1999 | 9.7 ± 0.78
w2 = 0.2591 | 10.4 ± 0.83
w2 = 0.3101 | 10.9 ± 0.87
w2 = 0.3546 | 11.1 ± 0.88
w2 = 0.3937 | 11.3 ± 0.91
w2 = 0.4592 | 11.2 ± 0.9
w2 = 0.4998 | 10.8 ± 0.87
w2 = 0.5553 | 10.9 ± 0.88
w2 = 0.5998 | 10.4 ± 0.83
w2 = 0.655 | 9.97 ± 0.8
w2 = 0.7013 | 9.42 ± 0.75
w2 = 0.7999 | 7.86 ± 0.63
w2 = 0.8504 | 6.1 ± 0.49
w2 = 0.9074 | 4.5 ± 0.36
w2 = 0.96 | 2.5 ± 0.2
w2 = 0.9987 | 0.122 ± 0.01

C1CC[NH2+]C1.CCCCCCC(=O)[O-] [pyrrolidinium heptanoate]
[2]
Details | electrical conductivity [S/m] | mass density [kg/m3]
– | 0.186 ± 0.015 | 972.1 ± 60

Cc1cccc[n+]1C.O=C[O-] [1,2-dimethylpyridinium formate]
[2]
Details | electrical conductivity [S/m] | mass density [kg/m3] | viscosity [mPa·s]
– | 1.04 ± 0.083 | 1020.9 ± 60 | 2.61

CC[NH+](C(C)C)C(C)C.O=C[O-] [ethyldiisopropylammonium formate]
[2]
Details | electrical conductivity [S/m] | mass density [kg/m3] | viscosity [mPa·s]
– | 0.586 ± 0.047 | 1014.4 ± 60 | 18

C1CC[NH2+]C1.CCCCCCC(=O)[O-] [pyrrolidinium heptanoate] + O
[1]
Details | electrical conductivity [S/m]
w2 = 0 | 0.186 ± 0.015
w2 = 0.0476 | 0.528 ± 0.042
w2 = 0.0909 | 0.74 ± 0.059
w2 = 0.1489 | 1.13 ± 0.09
w2 = 0.2 | 1.41 ± 0.11
w2 = 0.2593 | 1.8 ± 0.14
w2 = 0.2857 | 1.97 ± 0.16
w2 = 0.3103 | 2.12 ± 0.17
w2 = 0.3333 | 2.22 ± 0.18
w2 = 0.3548 | 2.31 ± 0.18
w2 = 0.375 | 2.38 ± 0.19
w2 = 0.3939 | 2.42 ± 0.19
w2 = 0.403 | 2.44 ± 0.2
w2 = 0.4203 | 2.47 ± 0.2
w2 = 0.4444 | 2.53 ± 0.2
w2 = 0.4595 | 2.56 ± 0.2
w2 = 0.4872 | 2.59 ± 0.21
w2 = 0.5 | 2.6 ± 0.21
w2 = 0.5238 | 2.61 ± 0.21
w2 = 0.5556 | 2.62 ± 0.21
w2 = 0.608 | 2.47 ± 0.2
w2 = 0.7011 | 2.12 ± 0.17
w2 = 0.805 | 1.52 ± 0.12
w2 = 0.905 | 0.728 ± 0.058

Cc1ccc[n+](C)c1C.O=C[O-] [1,2,3-trimethylpyridinium formate]
[2]
Details | electrical conductivity [S/m] | mass density [kg/m3] | viscosity [mPa·s]
– | 0.68 ± 0.054 | 1167.6 ± 60 | 10

C1CC[NH2+]C1.CCCCCCCCC(=O)[O-] [pyrrolidinium nonanoate]
[2]
Details | electrical conductivity [S/m] | mass density [kg/m3] | viscosity [mPa·s]
– | 0.064 ± 0.005 | 931.5 ± 60 | 74.4

O [water] + C1CC[NH2+]C1.CCCCCCC(=O)[O-]
Details | electrical conductivity [S/m]
[1], w1 = 1 | 0.0001 ± 0.0001

C1CC[NH2+]C1.O=C[O-] [pyrrolidinium formate]
[2]
Details | electrical conductivity [S/m] | viscosity [mPa·s]
– | 3.29 ± 0.26 | 2.5

O [water] + Cc1ccc[n+](C)c1C.O=C[O-]
Details | electrical conductivity [S/m]
[1], w1 = 1 | 0.0001 ± 0.0001
